Measurements as given in ChEMBL document CHEMBL5260848, “Recent advancements in the development of bioactive pyrazoline derivatives” (Eur J Med Chem, 2020).
Values after ≈ are worked out from the molar mass of the structure shown.

Experiments:
[1] = test system: Escherichia coli; experiment: Antibacterial activity against Escherichia coli incubated for 24 hrs by disc diffusion method; format: functional
[2] = test system: Aspergillus fumigatus; experiment: Antifungal activity against Aspergillus fumigatus incubated for 24 hrs by disc diffusion method; format: functional
[3] = test system: Aspergillus niger; experiment: Antifungal activity against Aspergillus niger incubated for 24 hrs by disc diffusion method; format: functional
[4] = test system: Aspergillus flavus; experiment: Antifungal activity against Aspergillus flavus incubated for 24 hrs by disc diffusion method; format: functional
[5] = test system: Mycobacterium tuberculosis; experiment: microbe, parasite or virus in culture; conditions: 120 h
[6] = test system: Staphylococcus aureus; experiment: microbe, parasite or virus in culture; conditions: 24 h
[7] = test system: Bacillus subtilis; experiment: microbe, parasite or virus in culture; conditions: 24 h
[8] = test system: Pseudomonas aeruginosa; experiment: microbe, parasite or virus in culture; conditions: 24 h
[9] = test system: Candida albicans; experiment: microbe, parasite or virus in culture; conditions: 24 h
[10] = biological target: T1, Amine oxidase [flavin-containing] A (Homo sapiens, UniProt P21397)
T1 sequence (P21397 whole entry): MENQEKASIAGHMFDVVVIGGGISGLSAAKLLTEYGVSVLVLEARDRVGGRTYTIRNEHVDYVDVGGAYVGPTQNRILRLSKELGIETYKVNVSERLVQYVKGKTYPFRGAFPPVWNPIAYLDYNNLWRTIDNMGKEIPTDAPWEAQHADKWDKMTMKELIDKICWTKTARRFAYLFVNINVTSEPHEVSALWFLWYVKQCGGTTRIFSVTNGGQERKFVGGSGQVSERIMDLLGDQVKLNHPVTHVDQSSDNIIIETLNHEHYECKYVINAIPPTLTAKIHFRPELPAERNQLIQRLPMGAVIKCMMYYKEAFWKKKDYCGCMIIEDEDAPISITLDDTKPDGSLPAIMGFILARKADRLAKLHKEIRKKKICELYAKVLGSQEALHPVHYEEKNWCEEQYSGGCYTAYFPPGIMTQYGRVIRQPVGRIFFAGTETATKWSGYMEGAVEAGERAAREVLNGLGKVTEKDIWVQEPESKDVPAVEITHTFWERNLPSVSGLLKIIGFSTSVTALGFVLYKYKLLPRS

[11] = biological target: T2, Amine oxidase [flavin-containing] B (Homo sapiens, UniProt P27338)
T2 sequence (P27338 whole entry): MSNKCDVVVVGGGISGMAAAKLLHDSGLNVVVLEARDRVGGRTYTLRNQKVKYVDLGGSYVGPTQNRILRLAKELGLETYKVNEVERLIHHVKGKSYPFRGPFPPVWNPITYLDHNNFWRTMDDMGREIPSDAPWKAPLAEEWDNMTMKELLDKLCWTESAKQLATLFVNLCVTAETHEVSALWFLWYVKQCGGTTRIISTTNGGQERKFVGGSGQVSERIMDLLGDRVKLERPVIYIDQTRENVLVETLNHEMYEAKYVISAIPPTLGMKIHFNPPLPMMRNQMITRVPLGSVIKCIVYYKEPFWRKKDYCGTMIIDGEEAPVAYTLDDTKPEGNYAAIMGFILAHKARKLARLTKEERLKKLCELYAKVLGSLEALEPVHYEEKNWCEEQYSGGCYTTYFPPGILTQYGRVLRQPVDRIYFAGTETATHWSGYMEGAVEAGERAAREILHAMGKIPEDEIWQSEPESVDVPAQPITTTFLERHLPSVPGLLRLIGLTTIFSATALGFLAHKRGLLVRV

[12] = species: Mus musculus; experiment: Antidepressant activity in Swiss albino mouse assessed as decrease in immobility time by forced swimming test; format: functional
[13] = species: Mus musculus; experiment: Antidepressant activity in Swiss albino mouse assessed as decrease in immobility time by tail suspension test; format: functional
[14] = species: Homo sapiens; experiment: Selectivity index, ratio of Ki for human MAO-A to Ki for human MAO-B
[15] = species: Mus musculus; experiment: Antidepressant activity in mouse assessed as […] by tail suspension test; format: functional
[16] = species: Mus musculus; experiment: Antidepressant activity in mouse assessed as […] by forced swimming test; format: functional

Work on `Cc1ccc(C2CC(c3ccccc3)=NN2C(=O)NNS(=O)(=O)c2ccc(F)cc2F)cc1` (configuration not stated) yielded an MIC [1] of 25 µg/mL (≈ 53.1 µM), an MIC [2] of 25 µg/mL (≈ 53.1 µM) and an MIC [3] of 25 µg/mL (≈ 53.1 µM). It also gave an MIC [4] of 25 µg/mL (≈ 53.1 µM), an MIC [5] of 0.8 µg/mL (≈ 1.7 µM) and an MIC [6] of 25 µg/mL (≈ 53.1 µM). It also gave an MIC [7] of 25 µg/mL (≈ 53.1 µM), an MIC [8] of 25 µg/mL (≈ 53.1 µM) and an MIC [9] of 25 µg/mL (≈ 53.1 µM).
`C=CCNC(=S)N1N=C(c2ccc(OC)cc2)CC1c1ccc(F)cc1` (configuration not stated) gave a Ki [10] of 0.1 nM and a Ki [11] of 200 nM.
Work on `Cc1nc(-c2cccc(Cl)c2Cl)ccc1C1=NNC(c2cc(F)cc(F)c2)C1` (configuration not stated) yielded a Time [12] of 66.67 s and a Time [13] of 70.33 s.
`O=C(NNS(=O)(=O)c1ccc(F)cc1)N1N=C(c2ccc(F)cc2)CC1c1ccc(F)cc1` (configuration not stated) gave an MIC [1] of 25 µg/mL (≈ 52.7 µM), an MIC [2] of 25 µg/mL (≈ 52.7 µM) and an MIC [3] of 25 µg/mL (≈ 52.7 µM). The MIC [4] was 25 µg/mL (≈ 52.7 µM), the MIC [5] was 0.8 µg/mL (≈ 1.69 µM) and the MIC [6] was 25 µg/mL (≈ 52.7 µM). The MIC [7] was 25 µg/mL (≈ 52.7 µM), the MIC [8] was 25 µg/mL (≈ 52.7 µM) and the MIC [9] was 25 µg/mL (≈ 52.7 µM).
`CNC(=S)N1N=C(c2ccc(OC)cc2)CC1c1ccc(F)cc1` (configuration not stated) showed a Ratio Ki [14] of 0.000464, a Ki [10] of 0.1 nM and a Ki [11] of 200 nM.
`Clc1ccc(C2=NNC(c3ccco3)C2)cc1` (configuration not stated) gave a Time [15] of 21.17 s and a Time [16] of 21.17 s.
`Clc1ccc(C2=NNC(c3cccs3)C2)cc1` (configuration not stated) gave a Time [15] of 21.17 s and a Time [16] of 21.17 s.
`CNC(=S)N1N=C(c2ccc(C)cc2)CC1c1ccc(F)cc1` (configuration not stated) showed a Ratio Ki [14] of 0.000464, a Ki [10] of 0.1 nM and a Ki [11] of 200 nM.
`C=CCNC(=S)N1N=C(c2ccc(C)cc2)CC1c1ccc(F)cc1` (configuration not stated) showed a Ratio Ki [14] of 0.000464, a Ki [10] of 0.1 nM and a Ki [11] of 200 nM.
With `CSc1ccc(C2CC(c3ccccc3)=NN2C(=O)NNS(=O)(=O)c2ccccc2)cc1` (configuration not stated) the MIC [1] was 25 µg/mL (≈ 53.6 µM), the MIC [2] was 25 µg/mL (≈ 53.6 µM) and the MIC [3] was 25 µg/mL (≈ 53.6 µM). The MIC [4] was 25 µg/mL (≈ 53.6 µM), the MIC [5] was 0.8 µg/mL (≈ 1.71 µM) and the MIC [6] was 25 µg/mL (≈ 53.6 µM). It also gave an MIC [7] of 25 µg/mL (≈ 53.6 µM), an MIC [8] of 25 µg/mL (≈ 53.6 µM) and an MIC [9] of 25 µg/mL (≈ 53.6 µM).
Compound `Fc1ccc(C2CC(c3ccc(Cl)cc3)=NN2C(=S)Nc2ccccc2)cc1` (configuration not stated) has a Ratio Ki [14] of 0.000464, a Ki [10] of 0.1 nM and a Ki [11] of 200 nM.
For `Cc1ccc(C2=NN(C(=S)Nc3ccccc3)C(c3ccc(F)cc3)C2)cc1` (configuration not stated), the Ki [10] was 0.1 nM.
With `CNC(=S)N1N=C(c2ccc(Cl)cc2)CC1c1ccc(F)cc1` (configuration not stated) the Ratio Ki [14] was 0.000464, the Ki [10] was 0.1 nM and the Ki [11] was 200 nM.
For `COc1ccc(C2CC(c3ccccc3)=NN2C(=O)NNS(=O)(=O)c2ccc(F)cc2)cc1` (configuration not stated), the MIC [1] was 25 µg/mL (≈ 53.4 µM), the MIC [2] was 25 µg/mL (≈ 53.4 µM) and the MIC [3] was 25 µg/mL (≈ 53.4 µM). For the same compound, the MIC [4] was 25 µg/mL (≈ 53.4 µM), the MIC [5] was 0.8 µg/mL (≈ 1.71 µM) and the MIC [6] was 25 µg/mL (≈ 53.4 µM). For the same compound, the MIC [7] was 25 µg/mL (≈ 53.4 µM), the MIC [8] was 25 µg/mL (≈ 53.4 µM) and the MIC [9] was 25 µg/mL (≈ 53.4 µM).
With `C=CCNC(=S)N1N=C(c2ccc(Cl)cc2)CC1c1ccc(F)cc1` (configuration not stated) the Ratio Ki [14] was 0.000464, the Ki [10] was 0.1 nM and the Ki [11] was 200 nM.
`Cc1nc(-c2cccc(Cl)c2Cl)ccc1C1=NNC(c2ccc(Br)cc2)C1` (configuration not stated) showed a Time [12] of 66.67 s and a Time [13] of 70.33 s.
Work on `COc1ccc(C2CC(c3ccccc3)=NN2C(=O)NNS(=O)(=O)c2ccc(F)cc2F)cc1` (configuration not stated) yielded an MIC [1] of 25 µg/mL (≈ 51.4 µM), an MIC [2] of 25 µg/mL (≈ 51.4 µM) and an MIC [3] of 25 µg/mL (≈ 51.4 µM). For the same compound, the MIC [4] was 25 µg/mL (≈ 51.4 µM), the MIC [5] was 0.8 µg/mL (≈ 1.64 µM) and the MIC [6] was 25 µg/mL (≈ 51.4 µM). The MIC [7] was 25 µg/mL (≈ 51.4 µM), the MIC [8] was 25 µg/mL (≈ 51.4 µM) and the MIC [9] was 25 µg/mL (≈ 51.4 µM).
`c1csc(C2CC(c3cccc4ccccc34)=NN2)c1` (configuration not stated) was tested, and the Time [15] was 21.17 s and the Time [16] was 21.17 s.
`Oc1ccc(C2=NNC(c3cccs3)C2)cc1` (configuration not stated) was tested, and the Time [15] was 21.17 s and the Time [16] was 21.17 s.
`Clc1ccc(C2=NNC(c3ccc(Cl)cc3)C2)cc1` (configuration not stated) gave a Time [15] of 21.17 s and a Time [16] of 21.17 s.
`O=C(NNS(=O)(=O)c1ccc(F)cc1)N1N=C(c2ccccc2)CC1c1ccccc1` (configuration not stated) was tested, and the MIC [1] was 25 µg/mL (≈ 57 µM), the MIC [2] was 25 µg/mL (≈ 57 µM) and the MIC [3] was 25 µg/mL (≈ 57 µM). For the same compound, the MIC [4] was 25 µg/mL (≈ 57 µM), the MIC [5] was 0.8 µg/mL (≈ 1.82 µM) and the MIC [6] was 25 µg/mL (≈ 57 µM). It also gave an MIC [7] of 25 µg/mL (≈ 57 µM), an MIC [8] of 25 µg/mL (≈ 57 µM) and an MIC [9] of 25 µg/mL (≈ 57 µM).
`CCNC(=S)N1N=C(c2ccc(C)cc2)CC1c1ccc(F)cc1` (configuration not stated) showed a Ratio Ki [14] of 0.000464, a Ki [10] of 0.1 nM and a Ki [11] of 200 nM.
